Source: BindingDB's records for doi:10.1021/acsmedchemlett.6b00145 (Amgen, 2016)

Experiments:
Hexokinase-4 [1] = molecular target: T1, Hexokinase-4 (Homo sapiens, UniProt P35557); assay: Activation of human recombinant glucokinase using 5 mM glucose as substrate in presence of NAD+ by glucose 6-phosphate dehydrogenase coupled assay
T1 sequence (P35557 whole entry): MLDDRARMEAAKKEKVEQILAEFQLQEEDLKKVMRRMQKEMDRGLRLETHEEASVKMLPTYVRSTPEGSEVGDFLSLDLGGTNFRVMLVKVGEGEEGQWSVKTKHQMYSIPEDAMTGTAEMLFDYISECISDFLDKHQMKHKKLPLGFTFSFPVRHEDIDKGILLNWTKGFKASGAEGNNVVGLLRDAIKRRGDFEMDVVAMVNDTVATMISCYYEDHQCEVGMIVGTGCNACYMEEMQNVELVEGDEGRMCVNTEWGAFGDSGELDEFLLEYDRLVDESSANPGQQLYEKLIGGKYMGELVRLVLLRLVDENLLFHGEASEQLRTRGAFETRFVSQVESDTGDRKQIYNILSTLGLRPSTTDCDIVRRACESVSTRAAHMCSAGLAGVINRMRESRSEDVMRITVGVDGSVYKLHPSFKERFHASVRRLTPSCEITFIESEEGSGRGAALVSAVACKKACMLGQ

Hexokinase-4 [2] = molecular target: T1, Hexokinase-4; assay: Activation of human recombinant glucokinase using 5 mM glucose as substrate in presence of NAD+ and 4% HSA by glucose 6-phosphate dehydrogenase coupled assay

Row | EC50 (Hexokinase-4 [1]) | EC50 (Hexokinase-4 [2]) | Structure (SMILES)
1 | 83 nM | 130 nM | CNC(=O)Nc1cc(Oc2cncc(C)c2)c([C@H]2C[C@@H]2C(C)(C)O)cn1
2 | 97 nM | 190 nM | CNC(=O)Nc1cc(Oc2cncc(C)c2)c([C@@H]2CC[C@@H](O)C2)cn1
3 | 940 nM | 920 nM | CNC(=O)Nc1cc(Oc2cncc(OC)c2)c([C@@H]2COCC[C@@H]2O)cn1
4 | 130 nM | 170 nM | CNC(=O)Nc1cc(Oc2cncc(C)c2)c([C@H]2C[C@@H]2CO)cn1
